Measured values published in patent publication US9676760B2, “Fused heterocyclic compounds as ion channel modulators” (Gilead Sciences, Inc., priority 2011, dated 2017).

Legend:
Assay type in all cases: cell-based
[1] = target: T1, wild-type human cardiac sodium channel, hNav1.5 (Homo sapiens, UniProt Q14524); experiment: Late INa screening assay (QPatch whole cell patch clamp, HEK293)
Summary of the method: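 HEK293 stably expressing hNav1.5 without beta subunits, recorded at 23-25° C. Late current was induced by 10 μM tefluthrin. Cells were depolarized from −120 mV to −20 mV for 250 ms at 0.1 Hz. Compounds were tested at 1 μM in extracellular solution, with baseline taken in 0Na-ECF; output is percent block of late INa.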

[2] = target: T1, wild-type human cardiac sodium channel, hNav1.5; experiment: Peak INa screening assay (tonic and use-dependent block); details: compound at 1 μM
Experimental: The late sodium current (Late INa) and peak sodium current (Peak INa) assays are performed on an automated electrophysiology platform, QPatch 16× (Sophion Bioscience, Copenhagen, Denmark), which uses the whole cell patch clamp technique to measure currents through the cell membrane of up to 16 cells at a time. The assay uses an HEK293 (human embryonic kidney) cell line heterologously expressing the wild-type human cardiac sodium channel, hNav1.5, purchased from Millipore (Billerica, Mass.). No beta subunits were coexpressed with the Na channel alpha subunit. Cells are maintained with standard tissue culture procedures and stable channel expression is maintained with 400 μg/mL Geneticin in the culture medium. Cells isolated for use on QPatch are incubated for 5 minutes in Detachin 1×(Genlantis, San Diego, USA) at 37° C. to ensure that 80-90% of the cells are single and not part of a cell cluster. Experiments are carried out at 23-25° C.
For both the Late INa and Peak INa assays, series resistance compensation is set to 100% and series resistance and whole-cell compensation are performed automatically. Currents are digitized at 25 kHz and low-pass filtered at 12 kHz and 10 kHz for the late and peak INa assays, respectively. Currents through open sodium channels are automatically recorded and stored in the Sophion Bioscience Oracle database (Sophion Bioscience, Copenhagen, Denmark). Analysis is performed using QPatch Assay and database software and data are compiled in Excel.
Compound stocks are routinely made by the Gilead Sample Bank in plastic vials to 10 mM in dimethyl sulfoxide (DMSO). In some cases, when compounds are not soluble in DMSO, they are made in 100% ethanol. Stocks are sonicated as necessary. The extracellular solution for screening Late INa is composed of: 140 mM NaCl, 4 mM KCl, 1.8 mM CaCl2, 0.75 mM MgCl2 and 5 mM HEPES with pH adjusted to 7.4 using NaOH. The intracellular solution used to perfuse the inside of the cells for both the Late INa and Peak INa assays contains: 120 mM CsF, 20 mM CsCl, 5 mM EGTA, 5 mM HEPES and pH adjusted to 7.4 with CsOH. Compounds are diluted in extracellular solution to 1 μM in glass vials and then transferred to glass well plates before robotic addition to the cells. The 0 mM Na extracellular solution (0Na-ECF) used at the end of each experiment for the Late INa and Peak INa assays to measure baseline current contains: 140 mM N-methyl-D-glucamine; 4 mM KCl; 1.8 mM CaCl2; 0.75 mM MgCl2; 5 mM HEPES and pH was adjusted to 7.4 with HCl.
Compounds were also evaluated for their effect in several other assays, including their effect on Peak INa. […] Since the peak INa in the cells used herein can be very large, introducing artifacts in the recording, the concentration of Na^+ in the bath can be reduced to 20 mM and a nonpermeant cation added to compensate for the Na^+ that was removed to maintain the osmolarity and ionic strength of the solution (see solution details below).
A low stimulation frequency of 0.1 Hz was used to determine the effect of the test compound when the channel spent most of the time in the resting (closed) state and provides information about Tonic Block (TB). A higher stimulation frequency (3 Hz) was used to measure block of the channel when it spent more time in the activated and inactivated states and provided a measure of Use-Dependent Block (UDB). Use-dependent block refers to the accumulation of block with increased frequency of channel activation.

[3] = target: T2, hNav 1.1 sodium channel isoform (Homo sapiens, UniProt P35498); experiment: hNav1.1 whole-cell voltage-clamp assay; details: % Inhibition at 1 uM; use-dependent block, 10 Hz; read-out: NAV1.1* UDB-10HZ
T2 construct: expressed in transfected cells; host or cells: HEK293, transient transfection (Qiagen Superfect)

[4] = target: T3, hNav 1.2 sodium channel isoform (Homo sapiens, UniProt Q99250); experiment: hNav1.2 whole-cell voltage-clamp assay; details: use-dependent block, 10 Hz, read-out: NAV1.2* UDB-10HZ
T3 construct: expressed in transfected cells
T3 sequence (Q99250 whole entry, canonical isoform): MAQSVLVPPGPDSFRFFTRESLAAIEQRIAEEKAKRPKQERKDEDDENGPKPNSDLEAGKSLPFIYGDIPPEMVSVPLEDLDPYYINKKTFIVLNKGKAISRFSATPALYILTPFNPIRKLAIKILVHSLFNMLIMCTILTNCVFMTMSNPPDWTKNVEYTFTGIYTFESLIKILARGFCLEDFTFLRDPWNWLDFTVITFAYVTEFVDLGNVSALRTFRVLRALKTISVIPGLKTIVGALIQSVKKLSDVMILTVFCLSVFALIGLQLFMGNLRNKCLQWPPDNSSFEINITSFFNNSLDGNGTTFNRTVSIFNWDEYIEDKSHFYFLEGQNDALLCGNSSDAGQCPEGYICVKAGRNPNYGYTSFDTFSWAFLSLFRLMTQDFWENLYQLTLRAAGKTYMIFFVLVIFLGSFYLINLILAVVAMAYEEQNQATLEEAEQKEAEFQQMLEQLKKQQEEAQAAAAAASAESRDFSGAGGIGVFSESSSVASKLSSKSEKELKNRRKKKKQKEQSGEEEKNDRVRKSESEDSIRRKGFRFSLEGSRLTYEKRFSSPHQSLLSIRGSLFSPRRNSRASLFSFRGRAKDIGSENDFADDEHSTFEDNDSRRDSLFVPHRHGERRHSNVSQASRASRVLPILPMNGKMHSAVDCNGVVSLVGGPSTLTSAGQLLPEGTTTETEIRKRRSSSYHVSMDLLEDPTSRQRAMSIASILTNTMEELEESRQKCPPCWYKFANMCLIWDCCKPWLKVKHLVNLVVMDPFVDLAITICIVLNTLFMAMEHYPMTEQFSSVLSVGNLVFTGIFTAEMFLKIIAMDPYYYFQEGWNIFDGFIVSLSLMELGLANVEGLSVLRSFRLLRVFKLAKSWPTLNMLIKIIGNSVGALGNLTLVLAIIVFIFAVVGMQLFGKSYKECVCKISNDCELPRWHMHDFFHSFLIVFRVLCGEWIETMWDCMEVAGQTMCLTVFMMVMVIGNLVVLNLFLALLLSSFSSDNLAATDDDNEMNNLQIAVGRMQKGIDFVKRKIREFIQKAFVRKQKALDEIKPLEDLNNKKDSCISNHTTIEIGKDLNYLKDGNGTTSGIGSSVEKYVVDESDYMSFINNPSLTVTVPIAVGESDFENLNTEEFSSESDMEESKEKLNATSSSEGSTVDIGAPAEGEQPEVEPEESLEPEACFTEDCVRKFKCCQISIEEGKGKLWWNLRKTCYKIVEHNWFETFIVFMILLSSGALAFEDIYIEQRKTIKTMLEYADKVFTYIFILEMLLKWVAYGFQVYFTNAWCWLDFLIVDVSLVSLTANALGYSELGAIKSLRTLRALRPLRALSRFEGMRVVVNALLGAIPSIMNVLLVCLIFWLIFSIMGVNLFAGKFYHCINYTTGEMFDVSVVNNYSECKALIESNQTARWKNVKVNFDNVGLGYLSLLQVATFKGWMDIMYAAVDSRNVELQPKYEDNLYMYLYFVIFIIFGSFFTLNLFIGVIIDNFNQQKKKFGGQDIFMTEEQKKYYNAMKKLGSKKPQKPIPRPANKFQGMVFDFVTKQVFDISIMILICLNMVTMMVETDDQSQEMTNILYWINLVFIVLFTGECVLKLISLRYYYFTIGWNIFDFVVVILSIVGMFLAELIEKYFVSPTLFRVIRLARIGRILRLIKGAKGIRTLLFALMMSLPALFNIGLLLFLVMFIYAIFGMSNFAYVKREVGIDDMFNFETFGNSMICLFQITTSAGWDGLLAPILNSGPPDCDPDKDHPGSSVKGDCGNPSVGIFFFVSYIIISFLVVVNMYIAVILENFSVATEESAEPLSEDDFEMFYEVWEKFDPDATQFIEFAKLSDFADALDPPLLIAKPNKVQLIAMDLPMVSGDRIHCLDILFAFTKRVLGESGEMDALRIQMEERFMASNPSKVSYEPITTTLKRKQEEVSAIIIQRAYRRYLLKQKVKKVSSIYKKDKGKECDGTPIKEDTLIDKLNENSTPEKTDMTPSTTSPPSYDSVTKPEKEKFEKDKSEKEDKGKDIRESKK
Experimental: Wild-type (WT) cDNA stably transfected in Chinese hamster ovary (CHO) cells is used to record INa. Unless otherwise noted, all reagents are purchased from Sigma-Aldrich (St Louis, Mo., U.S.A.).
Whole-cell voltage-clamp recordings are used to measure the biophysical properties of WT. […] Cells are allowed to stabilize for 10 min after establishment of the whole-cell configuration before current is measured. Series resistance is compensated 90% to assure that the command potential is reached within microseconds with a voltage error<2 mV. Leak currents are subtracted by using an online P/4 procedure and all currents are low-pass Bessel filtered at 5 kHz and digitized at 50 kHz.
For clarity, representative ramp currents are low pass filtered off-line at 50 Hz. Specific voltage-clamp protocols assessing channel activation, fast inactivation and availability during repetitive stimulation are used. Results are presented as mean±SEM.
Tonic block of peak current is measured using a step to −10 mV (20 ms) from a holding potential of −120 mV (0.2 Hz). Use-dependent block of peak current is measured during pulse number 300 of a pulse train (−10 mV, 5 ms, 300 pulses, 10 Hz or 25 Hz) from a holding potential of −120 mV. Two sequential pulse train stimulations are averaged to obtain mean current traces for each recording condition, which are then used for offline subtraction and analysis.
For use-dependent studies, cells are stimulated with depolarizing pulse trains (−10 mV, 5 ms, 300 pulses, 10 and 25 Hz) from a holding potential of −120 mV. Currents are then normalized to the peak current recorded in response to the first pulse in each frequency train. For tonic block studies, peak current is evaluated in response to a 20 ms depolarization to −10 mV (0.2 Hz). […] Results are presented as mean±SEM.
A stock solution of 10 mM compound of Formula I is prepared in 0.1 M HCl or DMSO. […] The final DMSO concentration was kept at 0.1% in all solutions. Direct application of the perfusion solution to the clamped cell is achieved using the Perfusion Pencil system (Automate, Berkeley, Calif.). Direct cell perfusion is driven by gravity at a flow rate of 350 μL/min using a 250 micron tip. This system sequesters the clamped cell within a perfusion stream and enables complete solution exchange within 1 second. The clamped cell is perfused continuously starting immediately after establishing the whole-cell configuration. Control currents are measured during control solution perfusion.
Solutions are perfused for three minutes prior to current recordings to allow equilibrium (tonic) drug block. Tonic block of peak currents is measured from this steady-state condition. Three sequential current traces are averaged to obtain a mean current for each recording. The mean current traces are utilized for offline analysis. Use-dependent block of peak current is measured during pulse number 300 of the pulse train, (−10 mV, 5 ms, 300 pulses, 10 Hz) from a holding potential of −120 mV.

[5] = HEK293, % Inhibition at 1 uM, read-out: Late INa*
[6] = HEK293, percent block of late INa, compound at 1 μM, 10 μM Tefluthrin, read-out: Late INa 1 μM
[7] = tonic block of peak INa, 0.1 Hz, read-out: Peak TB 1 μM
[8] = use-dependent block of peak INa, 3 Hz, read-out: Peak UDB 1 μM

T1 sequence (Q14524 whole entry): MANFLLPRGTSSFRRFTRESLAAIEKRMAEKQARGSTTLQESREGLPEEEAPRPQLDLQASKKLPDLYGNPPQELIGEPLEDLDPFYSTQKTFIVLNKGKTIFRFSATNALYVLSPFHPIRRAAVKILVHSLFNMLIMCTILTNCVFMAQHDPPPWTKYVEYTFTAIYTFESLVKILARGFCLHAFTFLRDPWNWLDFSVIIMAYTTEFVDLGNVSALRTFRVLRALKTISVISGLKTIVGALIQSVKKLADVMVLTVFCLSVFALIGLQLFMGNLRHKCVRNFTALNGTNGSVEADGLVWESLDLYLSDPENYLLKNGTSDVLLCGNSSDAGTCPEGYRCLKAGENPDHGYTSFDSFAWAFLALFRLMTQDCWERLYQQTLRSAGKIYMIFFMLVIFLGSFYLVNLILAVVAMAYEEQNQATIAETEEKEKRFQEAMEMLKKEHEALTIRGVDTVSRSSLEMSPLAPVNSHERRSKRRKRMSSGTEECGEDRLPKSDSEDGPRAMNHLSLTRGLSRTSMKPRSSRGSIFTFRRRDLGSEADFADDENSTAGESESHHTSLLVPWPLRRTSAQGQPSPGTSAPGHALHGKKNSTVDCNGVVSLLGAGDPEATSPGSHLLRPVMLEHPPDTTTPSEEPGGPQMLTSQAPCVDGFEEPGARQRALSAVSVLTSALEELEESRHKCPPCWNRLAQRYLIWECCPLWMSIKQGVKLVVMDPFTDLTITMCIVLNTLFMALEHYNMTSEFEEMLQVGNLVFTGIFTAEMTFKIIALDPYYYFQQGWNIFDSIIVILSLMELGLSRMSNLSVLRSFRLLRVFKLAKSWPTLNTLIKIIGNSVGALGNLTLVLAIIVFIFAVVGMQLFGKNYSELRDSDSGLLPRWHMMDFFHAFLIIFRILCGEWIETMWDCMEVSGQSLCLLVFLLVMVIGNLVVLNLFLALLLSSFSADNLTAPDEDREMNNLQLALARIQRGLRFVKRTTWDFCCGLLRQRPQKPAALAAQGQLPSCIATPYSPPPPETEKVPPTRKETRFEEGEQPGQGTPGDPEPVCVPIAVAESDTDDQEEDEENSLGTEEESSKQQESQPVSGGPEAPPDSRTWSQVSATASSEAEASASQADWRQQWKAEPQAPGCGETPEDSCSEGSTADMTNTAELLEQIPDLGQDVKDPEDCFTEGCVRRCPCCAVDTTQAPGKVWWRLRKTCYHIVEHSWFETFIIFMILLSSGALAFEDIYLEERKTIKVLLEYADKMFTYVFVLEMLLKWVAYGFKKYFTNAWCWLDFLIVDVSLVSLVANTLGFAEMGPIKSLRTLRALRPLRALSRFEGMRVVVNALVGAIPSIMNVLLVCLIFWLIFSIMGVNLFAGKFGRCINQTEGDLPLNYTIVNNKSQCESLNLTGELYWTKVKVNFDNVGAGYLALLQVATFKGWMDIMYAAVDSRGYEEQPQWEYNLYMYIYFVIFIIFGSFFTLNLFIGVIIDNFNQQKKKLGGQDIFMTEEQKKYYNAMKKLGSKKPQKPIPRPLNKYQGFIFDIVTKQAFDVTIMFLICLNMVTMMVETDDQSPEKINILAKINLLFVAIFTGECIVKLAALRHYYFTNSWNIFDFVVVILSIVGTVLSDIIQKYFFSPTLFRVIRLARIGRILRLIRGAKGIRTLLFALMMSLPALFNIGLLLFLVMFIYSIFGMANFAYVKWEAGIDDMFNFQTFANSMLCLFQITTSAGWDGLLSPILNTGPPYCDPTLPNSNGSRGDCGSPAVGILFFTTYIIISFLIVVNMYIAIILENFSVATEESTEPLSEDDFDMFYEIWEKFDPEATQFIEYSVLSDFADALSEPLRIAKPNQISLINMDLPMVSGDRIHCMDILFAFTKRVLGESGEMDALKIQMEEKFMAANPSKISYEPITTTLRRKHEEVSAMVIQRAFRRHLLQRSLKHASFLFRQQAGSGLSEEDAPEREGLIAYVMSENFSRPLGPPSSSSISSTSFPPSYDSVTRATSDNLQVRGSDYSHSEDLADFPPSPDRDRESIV

In the case of `CC1CC=C(c2ccc3c(c2)C(=O)N(Cc2ncccn2)CCO3)CC1` (centres unmarked) [Compound V-5, 7-(4-methylcyclohex-1-enyl)-4-(pyrimidin-2-ylmethyl)-3,4-dihydrobenzo[f][1,4]oxazepin-5(2H)-one], the inhibition at 1 µM [1, 5] was 49%, the inhibition at 1 µM [1, 6] was 49% and the inhibition at 1 µM [2, 7] was 5%. The inhibition at 1 µM [2, 8] was 5%, the inhibition at 1 µM [3] was -18% and the inhibition at 1 µM [4] was 3%.

Work on `O=C1c2cc(-c3ccc(OC(F)(F)F)cc3)ccc2OCCN1Cc1ccc2ccccc2n1` [II-7, 4-(quinolin-2-ylmethyl)-7-(4-(trifluoromethoxy)phenyl)-3,4-dihydrobenzo[f][1,4]oxazepin-5(2H)-one] yielded an inhibition at 1 µM [1, 5] of 34%, an inhibition at 1 µM [1, 6] of 34% and an inhibition at 1 µM [3] of 0%. The inhibition at 1 µM [4] was 13%.

In the case of `O=C1c2cc(-c3ccc(OC(F)(F)F)cc3)ccc2OCCN1CC1CC1` [II-10, 4-(cyclopropylmethyl)-7-(4-(trifluoromethoxy)phenyl)-3,4-dihydrobenzo[f][1,4]oxazepin-5(2H)-one], the inhibition at 1 µM [1, 5] was 43%, the inhibition at 1 µM [1, 6] was 43% and the inhibition at 1 µM [2, 7] was 9%. The inhibition at 1 µM [2, 8] was 2%, the inhibition at 1 µM [3] was -4% and the inhibition at 1 µM [4] was 9%.

Compound `N#Cc1cccc(CN2CCOc3ccc(-c4ccc(OC(F)(F)F)cc4)cc3C2=O)n1` [II-14, 6-((5-oxo-7-(4-(trifluoromethoxy)phenyl)-2,3-dihydrobenzo[f][1,4]oxazepin-4(5H)-yl)methyl)picolinonitrile] has an inhibition at 1 µM [1, 5] of 47%, an inhibition at 1 µM [1, 6] of 47% and an inhibition at 1 µM [2, 7] of 7%. For the same compound, the inhibition at 1 µM [2, 8] was 6%, the inhibition at 1 µM [3] was 16% and the inhibition at 1 µM [4] was 19%.

Compound `COc1cc(OC)nc(CN2CCOc3ccc(-c4ccc(OC(F)(F)F)cc4)cc3C2=O)n1` [II-42, 4-((4,6-dimethoxypyrimidin-2-yl)methyl)-7-(4-(trifluoromethoxy)phenyl)-3,4-dihydrobenzo[f][1,4]oxazepin-5(2H)-one] has an inhibition at 1 µM [1, 5] of 34%, an inhibition at 1 µM [1, 6] of 34% and an inhibition at 1 µM [3] of 2%. The inhibition at 1 µM [4] was 12%.

`CN1CCOc2ccc(-c3ccc(OC(F)(F)F)cc3)cc2C1=O` [II-46, 4-methyl-7-(4-(trifluoromethoxy)phenyl)-3,4-dihydrobenzo[f][1,4]oxazepin-5(2H)-one] was tested, and the inhibition at 1 µM [1, 5] was 25%, the inhibition at 1 µM [1, 6] was 25% and the inhibition at 1 µM [3] was 2%. The inhibition at 1 µM [4] was 16%.

`Cc1cccnc1CN1CCOc2ccc(-c3ccc(OC(F)(F)F)cc3)cc2C1=O` [II-75, 4-((3-methylpyridin-2-yl)methyl)-7-(4-(trifluoromethoxy)phenyl)-3,4-dihydrobenzo[f][1,4]oxazepin-5(2H)-one] was tested, and the inhibition at 1 µM [1, 5] was 68%, the inhibition at 1 µM [1, 6] was 68% and the inhibition at 1 µM [2, 7] was 45%. For the same compound, the inhibition at 1 µM [2, 8] was 59%, the inhibition at 1 µM [3] was 35% and the inhibition at 1 µM [4] was 52%.

Compound `CCc1ccc(-c2ccc3c(c2)C(=O)N(Cc2ncccn2)CCO3)cc1` [II-91, 7-(4-ethylphenyl)-4-(pyrimidin-2-ylmethyl)-3,4-dihydrobenzo[f][1,4]oxazepin-5(2H)-one] has an inhibition at 1 µM [1, 5] of 54%, an inhibition at 1 µM [1, 6] of 54% and an inhibition at 1 µM [2, 7] of 8%. The inhibition at 1 µM [2, 8] was 11%, the inhibition at 1 µM [3] was -9% and the inhibition at 1 µM [4] was -3%.

For `COc1cccnc1CN1CCOc2ccc(-c3ccc(OC(F)(F)F)cc3)cc2C1=O` [II-143, 4-((3-methoxypyridin-2-yl)methyl)-7-(4-(trifluoromethoxy)phenyl)-3,4-dihydrobenzo[f][1,4]oxazepin-5(2H)-one], the inhibition at 1 µM [1, 5] was 65%, the inhibition at 1 µM [1, 6] was 65% and the inhibition at 1 µM [3] was 29%. For the same compound, the inhibition at 1 µM [4] was 44%.

With `Cc1ccnc(CN2CCOc3cnc(-c4ccc(OC(F)(F)F)cc4)cc3C2=O)n1` [XII-8, 4-((4-methylpyrimidin-2-yl)methyl)-7-(4-(trifluoromethoxy)phenyl)-3,4-dihydropyrido[4,3-f][1,4]oxazepin-5(2H)-one] the inhibition at 1 µM [1, 5] was 36%, the inhibition at 1 µM [1, 6] was 36% and the inhibition at 1 µM [3] was 11%. For the same compound, the inhibition at 1 µM [4] was 11%.

For `O=C1c2cc(-c3ccc(OC(F)(F)F)cc3)ncc2OCCN1Cc1ncccc1F` [XII-11, 4-((3-fluoropyridin-2-yl)methyl)-7-(4-(trifluoromethoxy)phenyl)-3,4-dihydropyrido[4,3-f][1,4]oxazepin-5(2H)-one], the inhibition at 1 µM [1, 6] was 55%, the inhibition at 1 µM [2, 7] was 25% and the inhibition at 1 µM [2, 8] was 24%.

`O=C1c2cc(Nc3ccc(OC(F)(F)F)cc3)ccc2OCCN1Cc1ccccn1` [XIII-4, 4-(pyridin-2-ylmethyl)-7-(4-(trifluoromethoxy)phenylamino)-3,4-dihydrobenzo[f][1,4]oxazepin-5(2H)-one] was tested, and the inhibition at 1 µM [1, 6] was 51%, the inhibition at 1 µM [2, 7] was 8% and the inhibition at 1 µM [2, 8] was 9%.

Work on `O=C1c2cc(Nc3ccc(C(F)(F)F)cc3)ccc2OCCN1Cc1ccccn1` [XIII-6, 4-(pyridin-2-ylmethyl)-7-(4-(trifluoromethyl)phenylamino)-3,4-dihydrobenzo[f][1,4]oxazepin-5(2H)-one] yielded an inhibition at 1 µM [1, 6] of 60%, an inhibition at 1 µM [2, 7] of 8% and an inhibition at 1 µM [2, 8] of 8%.
